Experimental data published in EP0729465B1, “PYRONE DERIVATIVES AS PROTEASE INHIBITORS AND ANTIVIRAL AGENTS” (PARKE, DAVIS & COMPANY, priority 1993, dated 1995).

System: HIV-1iiib
Test: Anti-HIV-1 activity, acute infection of H9 cells
Type: cell-based
Settings: Human immunodeficiency virus 1; H9 cell line infected with HIV-1iiib; reverse transcriptase assay at 4 and 7 days post infection; read-out: Concentration for 50% Protection
Description: Using the general methods of Pauwels et al., (J. Virol. Methods, 16, 171-185, 1987) and Mann et al. (AIDS Research and Human Retroviruses, 253-255, 1989) anti-viral assays of acute HIV-1 infection were performed in the H9 cell line. Cultures were batch infected in 1 ml of RPM1 1640 media/10% fetal calf serum containing 10^7 cells and 10^5 infectious doses of HIV-1iiib for an effective multiplicity of infection of 0.01. After 2 hours of viral absorption, cells were washed once and plated in 96-well microtiter plates at a density of 10^4 cells per well. Test compounds were added to produce the desired concentration of drug and 0.2% DMSO in a final volume of 200 µl. Uninfected parallel cultures were maintained for XTT cytotoxicity assay at 7 days post infection. Cultures were tested for viral replication by reverse transcriptase assay at 4 and 7 days post infection.

SMILES	EC50
O=c1oc(-c2ccc(OCc3ccccc3)cc2)cc(O)c1SCCc1ccccc1 [Example 26, 4-Hydroxy-3-[(2-phenylethyl)thio]-6-[4-(phenylmethoxy)phenyl] 2-2H-pyran-2-one]	17000 nM
Cc1cc(C)cc(-c2cc(O)c(SCc3ccccc3)c(=O)o2)c1 [Example 56, 6-(3,5-Dimethylphenyl)-4-hydroxy-3-[(phenylmethyl)-thio]-2H-pyran-2-one]	29000 nM

Further lines, results first:

EC50	SMILES
15000 nM	CC(C)CC(Sc1ccccc1)c1c(O)cc(-c2ccccc2)oc1=O (racemic) [Example 73, 4-Hydroxy-3-[3-methyl-1-(phenylthio)butyl]-6-phenyl-2H-pyran-2-one]
14000 nM	O=c1oc(-c2ccccc2)cc(O)c1C(SC1CCCC1)C1CCCC1 (racemic) [Example 151, 3-[Cyclopentyl(cyclopentylthio)methyl]-4-hydroxy-6-phenyl-2H-pyran-2-one]
31000 nM	Cc1cc(C)cc(-c2cc(O)c(Sc3ccccc3C(C)C)c(=O)o2)c1 [Example 154, 6-(3,5-Dimethylphenyl)-4-hydroxy-3-[(2-isopropylphenyl)-thio]-2H-pyran-2-one]

Target: T1, HIV-I Protease (Human immunodeficiency virus type 1 group M subtype B, UniProt P04585)
T1 construct: HIV-I Protease: The enzyme is obtained from Bachem Bioscience Inc; purchased Bachem Bioscience Inc
Test: HIV protease inhibition (hydrolysis of undecapeptide substrate, HPLC readout)
Type: biochemical
Settings: 40 µM substrate, pH 4.7, 37 °C, 5 minutes; read-out: 50% Inhibition Concentration (Averaged)
Description: • DTT Buffer: 1.0 mM dithiothreitol (DTT) was prepared fresh daily in 0.1% polyethylene glycol (mw 8000) 80 mM NaOAc, 160 mM NaCl, 1.0 mM EDTA, and brought to pH 4.7 with HCl. • HIV-I Protease: The enzyme is obtained from Bachem Bioscience Inc. The undiluted enzyme is thawed from -80 °C and diluted 50-fold with DTT buffer. The solution is always kept at 0 °C on ice water and used in the experiment within 20 minutes after thawing. • Enzyme Substrate: Substrate III from Bachem Bioscience Inc. is the undecapeptide H-His-Lys-Ala-Arg-Val-Leu-p-Nitrophenylalanine-Glu-Ala-Norleucine-ser-NH2 (> 97 % purity). A 200. µM stock solution in DTT buffer is prepared and stored on ice. Substrate solution is prepared fresh daily. • Test Compound: 10 mM inhibitor (I) in dimethyl sulfoxide (DMSO) is diluted to 200 µM with DTT buffer. From the 200 µM stock solution is made a 10 µM stock solution with 2% DMSO in DTT buffer. The two inhibitor solutions are used to make final [I] = 100, 50, 20, 10, 5, 2, 1, 0.5 and 0 µM with 2% DMSO in DTT buffer in each reaction well (total inhibitor volume of 50 µl).
To each reaction well is added 20 µl of substrate (final concentration of 40 µM), 50 µl of inhibitor (at a concentration such that final dilution will produce the test concentration) and 20 µl of DTT buffer. The reaction plate (96 wells) is incubated at 37 °C for at least 5 minutes.
10 µl of the diluted protease is added to the reaction well while the reaction plate is shaking. Once shaken for 10 seconds, the plate is returned to the heating block at 37 °C. (Final reaction volume = 100 µl.)
The reaction is incubated for 5 minutes at 37 °C. The reaction is stopped by placing the reaction plate on the shaker and adding 20 µl of 10% trifluoroacetic acid (TFA) and shaking for 10 seconds. The amount of proteolysis is then determined by separation of noncleaved substrate and two cleaved products with reverse-phase HPLC, while measuring absorbance at 220 nm to determine the relative peak areas of the three components. The relative peak areas are used to calculate % conversion to product as a function of inhibitor concentration. The data is plotted as % Control (the ratio of % conversion in the presence and absence of inhibitor x 100) versus inhibitor concentration and fit with the equation Y= 100/1+(X/IC50)^A, where IC50 is the inhibitor concentration at 50% inhibition and A is the slope of the inhibition curve.

SMILES	IC50
O=c1oc(-c2ccccc2)cc(O)c1C(Sc1ccccc1)c1ccccc1 (racemic) [Example 31, 4-Hydroxy-6-phenyl-3-[phenyl(phenylthio)methyl]-2H-pyran-2-one]	800 nM
O=c1oc(-c2cccc(Cl)c2)cc(O)c1SCc1ccccc1 [Example 1, 6-(3-Chlorophenyl)-4-hydroxy-3-[(phenylmethyl)thio]-2H-pyran-2-one]	470 nM
O=c1oc(-c2ccc(Cl)c(Cl)c2)cc(O)c1SCc1ccccc1 [Example 3, 6-(3,4-Dichlorophenyl)-4-hydroxy-3-[(phenylmethyl)thio]-2H-pyran-2-one]	1000 nM
COc1cccc(-c2cc(O)c(SCc3ccccc3)c(=O)o2)c1 [Example 4, 4-Hydroxy-6-(3-methoxyphenyl)-3-[(phenylmethyl)thio]-2H-pyran-2-one]	900 nM
O=c1oc(-c2cccc(Cl)c2)cc(O)c1SCCc1ccccc1 [Example 6, 6-(3-Chlorophenyl)-4-hydroxy-3-[(2-phenylethyl)thio]-2H-pyran-2-one]	400 nM
O=c1oc(-c2ccccc2)cc(O)c1SCc1ccccc1 [Example 8]	1700 nM
O=c1oc(-c2ccc(O)cc2)cc(O)c1SCc1ccccc1 [Example 15, 4-Hydroxy-6-(4-hydroxyphenyl)-3-[(phenylmethyl)thio]-2H-pyran-2-one]	690 nM
O=c1oc(-c2ccccc2)cc(O)c1SCCOc1ccccc1 [Example 20, 4-Hydroxy-3-[(2-phenoxyethyl)thio]-6-phenyl-2H-pyran-2-one]	1700 nM
O=c1oc(-c2cccc(O)c2)cc(O)c1SCc1ccccc1 [Example 23, 4-Hydroxy-6-(3-hydroxyphenyl)-3-[(phenylmethyl)thio]-2H-pyran-2-one]	1200 nM
O=c1oc(-c2ccc(O)cc2)cc(O)c1SCCc1ccccc1 [Example 24, 4-Hydroxy-6-(4-hydroxyphenyl)-3-[(phenylethyl)thio]-2H-pyran-2-one]	500 nM
O=c1oc(-c2ccccc2)cc(O)c1SC/C=C/c1ccccc1 [Example 25, 4-Hydroxy-6-phenyl-3-[3-(phenyl-2-propenyl)thio]-2H-pyran-2-one, (E)-]	1900 nM
O=c1oc(-c2ccc(OCc3ccccc3)cc2)cc(O)c1SCCc1ccccc1 [Example 26, 4-Hydroxy-3-[(2-phenylethyl)thio]-6-[4-(phenylmethoxy)phenyl] 2-2H-pyran-2-one]	330 nM
O=c1oc(-c2cccc(OCCc3ccccc3)c2)cc(O)c1SCCc1ccccc1 [Example 30, 4-Hydroxy-6-[3-(2-phenylethoxy)phenyl]-3-[(2-phenyl-ethyl)thio]-2H-pyran-2-one]	1970 nM
O=c1oc(-c2cccc(OCc3ccccc3)c2)cc(O)c1SCCc1ccccc1 [Example 39, 4-Hydroxy-3-[(2-phenylethyl)thio]-6-[3-(phenylmethoxy)phenyl]-2H-pyran-2-one]	750 nM
Cc1cccc(-c2cc(O)c(SCc3ccccc3)c(=O)o2)c1 [Example 42, 4-Hydroxy-6-(3-methylphenyl)-3-[(phenylmethyl)thio]-2H-pyran-2-one]	860 nM
COc1ccc(-c2cc(O)c(SCc3ccccc3)c(=O)o2)cc1C [Example 46, 4-Hydroxy-6-(4-methoxy-3-methylphenyl)-3-[(phenylmethyl)thio]-2H-pyran-2-one]	700 nM
O=c1oc(-c2ccc3c(c2)OCO3)cc(O)c1SCc1ccccc1 [Example 50, 6-(1,3-Benzodioxol-5-yl)-4-hydroxy-3-[(phenylmethyl)thio]-2H-pyran-2-one]	600 nM
COc1ccccc1COc1ccc(-c2cc(O)c(SCCc3ccccc3)c(=O)o2)cc1 [Example 54, 4-Hydroxy-6-[4-[(2-methoxyphenyl)methoxy]phenyl]-3-[(2-phenylethyl)thio]-2H-pyran-2-one]	450 nM
Cc1cc(C)cc(-c2cc(O)c(SCc3ccccc3)c(=O)o2)c1 [Example 56, 6-(3,5-Dimethylphenyl)-4-hydroxy-3-[(phenylmethyl)-thio]-2H-pyran-2-one]	130 nM
O=c1oc(-c2ccc(Oc3ccccc3)cc2)cc(O)c1SCCc1ccccc1 [Example 57, 4-Hydroxy-6-(4-phenoxyphenyl)-3-[(2-phenylethyl)thio]-2H-pyran-2-one]	1900 nM
O=c1oc(-c2ccc(OCc3ccccn3)cc2)cc(O)c1SCCc1ccccc1 [Example 59, 4-Hydroxy-3-[(2-phenylethyl)thio]-6-[4-(2-pyridinylmethoxy)phenyl]-2H-pyran-2-one]	770 nM
CCOC(=O)COc1ccc(-c2cc(O)c(SCCc3ccccc3)c(=O)o2)cc1 [Example 60, 4-[4-Hydroxy-2-oxo-3-[(2-phenylethyl)thio]-2H-pyran-6-yl]phenoxy acetic acid ethyl eater]	610 nM
O=C(O)COc1ccc(-c2cc(O)c(SCCc3ccccc3)c(=O)o2)cc1 [Example 63, 4-[4-Hydroxy-2-oxo-3-[(2-phenylethyl)thio]-2H-pyran-6-yl]phenoxyacetic acid]	140 nM

The remaining lines, values ahead:

IC50	SMILES
410 nM	CC(C)CC(Sc1ccccc1)c1c(O)cc(-c2ccccc2)oc1=O (racemic) [Example 73, 4-Hydroxy-3-[3-methyl-1-(phenylthio)butyl]-6-phenyl-2H-pyran-2-one]
70 nM	CC(C)CC(SC1CCCC1)c1c(O)cc(-c2ccccc2)oc1=O (racemic) [Example 96, 3-[1-(Cyclopentylthio)-3-methylbutyl]-4-hydroxy-6-phenyl-2H-pyran-2-one]
200 nM	CC(C)CC(SC1CCCCC1)c1c(O)cc(-c2ccc3c(c2)OCCO3)oc1=O (racemic) [Example 115, 3-[1-(Cyclohexylthio)-3-methylbutyl]-6-(2,3-dihydro-1,4-benzodioxin-6-yl)4-hydroxy-2H-pyran-2-one]
60 nM	O=c1oc(-c2ccccc2)cc(O)c1C(CC1CC1)SCc1ccccc1 (racemic) [Example 119, 3-[2-Cyclopropyl-1-[(phenylmethyl)thio]ethyl]-4-hydroxy-6-phenyl-2H-pyran-2-one]
230 nM	O=c1oc(-c2ccccc2)cc(O)c1C(SC1CCCC1)C1CCCC1 (racemic) [Example 151, 3-[Cyclopentyl(cyclopentylthio)methyl]-4-hydroxy-6-phenyl-2H-pyran-2-one]
240 nM	Cc1cc(-c2cc(O)c(SCc3ccccc3)c(=O)o2)cc(C)c1O [Example 99, 4-Hydroxy-6-(4-hydroxy-3,5-dimethylphenyl)-3-[(phenylmethyl)thio]-2H-pyran-2-one]
630 nM	Cc1cc(C)cc(-c2cc(O)c(Sc3ccccc3)c(=O)o2)c1 [Example 148, 6-(3,5-Dimethylphenyl)-4-hydroxy-3-(phenylthio)-2H-pyran-2-one]
410 nM	O=c1oc(-c2cccc(-c3ccccc3)c2)cc(O)c1Sc1ccc2ccccc2c1 [Example 168, 6-(1,1'-Biphenyl-3-yl)-4-hydroxy-3-[(naphthalen-2-yl)thio]-2H-pyran-2-one]

Same assay, conditions: read-out: 50% Inhibition Concentration (Averaged)

IC50	SMILES
55 nM	O=c1oc(-c2ccccc2)cc(O)c1C(CC1CC1)SC1CCCC1 (racemic) [Example 149, 3-[1-[Cyclopentylthio]-2-cyclopropylethyl]-4-hydroxy-6-phenyl-2H-pyran-2-one]
